Data taken from US8802597B2, “Herbicidal pyrimidines” (E I du Pont de Nemours and Company, priority 2003, dated 2014).

Experiments:
Format in all cases: in vivo
[1] = test system: barnyardgrass (Echinochloa crus-galli); test: Test B pre/postemergence
In short: (§1)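 Compounds in non-phytotoxic solvent with surfactant applied preemergence to planted seeds or postemergence to plants 2 to 18 cm tall (1- to 4-leaf stage). Greenhouse 13 to 15 days, then visual rating against controls on a 0 to 100 scale (100 = complete control).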

[2] = test system: velvetleaf (Abutilon theophrasti); test: Test B pre/postemergence
In short: as §1

[3] = test system: morningglory (Ipomoea coccinea); test: Test B pre/postemergence
In short: as §1

corn (Zea mays) = test: Test B pre/postemergence
In short: as §1

[4] = test system: crabgrass (Digitaria sanguinalis); test: Test B pre/postemergence
In short: as §1

[5] = test system: lambsquarters (Chenopodium album); test: Test B pre/postemergence
In short: as §1

[6] = test system: Surinam grass (Brachiaria decumbens); test: Test B pre/postemergence
In short: as §1

[7] = test system: cocklebur (Xanthium strumarium); test: Test B pre/postemergence
In short: as §1

[8] = test system: pigweed (Amaranthus retroflexus); test: Test B pre/postemergence
In short: as §1

[9] = test system: wheat (Triticum aestivum); test: Test B pre/postemergence
In short: as §1

[10] = test system: giant foxtail (Setaria faberii); test: Test B pre/postemergence
In short: as §1

[11] = test system: blackgrass (Alopecurus myosuroides); test: Test B postemergence; details: for Blackgrass plant response rating: 125 g ai/ha, scale 0 to 100 (0 no effect, 100 complete control); for Plant response rating, Blackgrass: 500 g ai/ha, scale 0 to 100
In short: as §1

wild oat (Avena fatua) = test: Test B postemergence; details: for Oat, Wild plant response rating: 125 g ai/ha, scale 0 to 100 (0 no effect, 100 complete control); for Plant response rating, Oat, Wild: 500 g ai/ha, scale 0 to 100
In short: as §1

[12] = test system: barnyardgrass (Echinochloa crus-galli); test: Test B flooded paddy test; details: Flood, 1000 g ai/ha; scale 0 (no effect) to 100 (complete control)
In short: (§2)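 Rice, umbrella sedge, duck salad and barnyardgrass grown to 2-leaf stage under flooded paddy conditions and treated with formulated test chemicals. Kept in greenhouse 13–15 days, then visually rated against untreated controls on a 0–100 scale (0 no effect, 100 complete control).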

[13] = test system: umbrella sedge (Cyperus difformis); test: Test B flooded paddy test; details: Flood, 1000 g ai/ha; scale 0 to 100
In short: as §2

rice (Oryza sativa) = test: Test B flooded paddy test; details: Flood, 1000 g ai/ha; scale 0 to 100
In short: as §2

[14] = test system: duck salad (Heteranthera limosa); test: Test B flooded paddy test; details: Flood, 1000 g ai/ha; scale 0 to 100
In short: as §2

[15] = Postemergence, 125 g ai/ha, scale 0 to 100 (0 no effect, 100 complete control)
[16] = Postemergence, 500 g ai/ha, scale 0 to 100
[17] = Preemergence, 125 g ai/ha, scale 0 to 100 (0 no effect, 100 complete control)
[18] = Preemergence, 500 g ai/ha, scale 0 to 100 (0 no effect, 100 complete control)

`CON=Cc1nc(C2CC2)nc(N)c1Br` [Compound 48] was tested, and the “Barnyardgrass plant response rating” value [1, 15] was 10, the “Plant response rating, Barnyardgrass” value [1, 16] was 20 and the “Plant response rating, Barnyardgrass” value [1, 17] was 0. The “Barnyardgrass plant response rating” value [1, 18] was 10, the “Velvetleaf plant response rating” value [2, 15] was 10 and the “Plant response rating, Velvetleaf” value [2, 16] was 60. For the same compound, the “Plant response rating, Velvetleaf” value [2, 17] was 0, the “Velvetleaf plant response rating” value [2, 18] was 0 and the “Morningglory plant response rating” value [3, 15] was 30. For the same compound, the “Plant response rating, Morningglory” value [3, 16] was 80, the “Plant response rating, Morningglory” value [3, 17] was 0 and the “Morningglory plant response rating” value [3, 18] was 30. The “Corn plant response rating” value (corn (Zea mays); [15]) was 0, the “Plant response rating, Corn” value (corn (Zea mays); [16]) was 0 and the “Plant response rating, Corn” value (corn (Zea mays); [17]) was 0. The “Corn plant response rating” value (corn (Zea mays); [18]) was 0, the “Crabgrass plant response rating” value [4, 15] was 10 and the “Plant response rating, Crabgrass” value [4, 16] was 20. The “Plant response rating, Crabgrass” value [4, 17] was 10, the “Lambsquarters plant response rating” value [5, 15] was 60 and the “Plant response rating, Lambsquarters” value [5, 16] was 80. For the same compound, the “Plant response rating, Lambsquarters” value [5, 17] was 70, the “Lambsquarters plant response rating” value [5, 18] was 100 and the “Surinam Grass plant response rating” value [6, 15] was 0. For the same compound, the “Plant response rating, Surinam Grass” value [6, 16] was 10, the “Plant response rating, Surinam Grass” value [6, 17] was 30 and the “Surinam Grass plant response rating” value [6, 18] was 60. The “Cocklebur plant response rating” value [7, 15] was 20, the “Plant response rating, Cocklebur” value [7, 16] was 80 and the “Plant response rating, Cocklebur” value [7, 17] was 0. For the same compound, the “Cocklebur plant response rating” value [7, 18] was 20, the “Pigweed plant response rating” value [8, 15] was 60 and the “Plant response rating, Pigweed” value [8, 16] was 80. The “Plant response rating, Pigweed” value [8, 17] was 60, the “Pigweed plant response rating” value [8, 18] was 80 and the “Wheat plant response rating” value [9, 15] was 0. For the same compound, the “Plant response rating, Wheat” value [9, 16] was 20, the “Plant response rating, Wheat” value [9, 17] was 0 and the “Plant response rating, Wheat” value [9, 18] was 30. For the same compound, the “Foxtail, Giant plant response rating” value [10, 15] was 10, the “Plant response rating, Foxtail, Giant” value [10, 16] was 10 and the “Plant response rating, Foxtail, Giant” value [10, 17] was 30. For the same compound, the “Foxtail, Giant plant response rating” value [10, 18] was 50, the “Blackgrass plant response rating” value [11] was 0 and the “Plant response rating, Blackgrass” value [11] was 20. The “Oat, Wild plant response rating” value (wild oat (Avena fatua)) was 0, the “Plant response rating, Oat, Wild” value (wild oat (Avena fatua)) was 20 and the “Plant response rating, Barnyardgrass” value [12] was 20. For the same compound, the “Plant response rating, Sedge, Umbrella” value [13] was 0, the “Plant response rating, Rice” value (rice (Oryza sativa)) was 0 and the “Plant response rating, Ducksalad” value [14] was 20.
`CCOC(=O)Cc1nc(-c2ccc(Cl)cc2)nc(N)c1Br` [Compound 41] was tested, and the “Barnyardgrass plant response rating” value [1, 15] was 20, the “Plant response rating, Barnyardgrass” value [1, 16] was 70 and the “Plant response rating, Barnyardgrass” value [1, 17] was 0. For the same compound, the “Barnyardgrass plant response rating” value [1, 18] was 10, the “Velvetleaf plant response rating” value [2, 15] was 50 and the “Plant response rating, Velvetleaf” value [2, 16] was 70. For the same compound, the “Plant response rating, Velvetleaf” value [2, 17] was 10, the “Velvetleaf plant response rating” value [2, 18] was 30 and the “Morningglory plant response rating” value [3, 15] was 70. For the same compound, the “Plant response rating, Morningglory” value [3, 16] was 90, the “Plant response rating, Morningglory” value [3, 17] was 0 and the “Morningglory plant response rating” value [3, 18] was 20. The “Corn plant response rating” value (corn (Zea mays); [15]) was 20, the “Plant response rating, Corn” value (corn (Zea mays); [16]) was 80 and the “Plant response rating, Corn” value (corn (Zea mays); [17]) was 0. For the same compound, the “Corn plant response rating” value (corn (Zea mays); [18]) was 0, the “Crabgrass plant response rating” value [4, 15] was 10 and the “Plant response rating, Crabgrass” value [4, 16] was 20. The “Plant response rating, Crabgrass” value [4, 17] was 0, the “Crabgrass plant response rating” value [4, 18] was 20 and the “Lambsquarters plant response rating” value [5, 15] was 80. The “Plant response rating, Lambsquarters” value [5, 16] was 90, the “Plant response rating, Lambsquarters” value [5, 17] was 30 and the “Lambsquarters plant response rating” value [5, 18] was 60. The “Surinam Grass plant response rating” value [6, 15] was 0, the “Plant response rating, Surinam Grass” value [6, 16] was 10 and the “Surinam Grass plant response rating” value [6, 18] was 0. For the same compound, the “Cocklebur plant response rating” value [7, 15] was 70, the “Plant response rating, Cocklebur” value [7, 17] was 0 and the “Cocklebur plant response rating” value [7, 18] was 10. For the same compound, the “Pigweed plant response rating” value [8, 15] was 70, the “Plant response rating, Pigweed” value [8, 16] was 90 and the “Plant response rating, Pigweed” value [8, 17] was 0. For the same compound, the “Pigweed plant response rating” value [8, 18] was 60, the “Wheat plant response rating” value [9, 15] was 30 and the “Plant response rating, Wheat” value [9, 16] was 40. For the same compound, the “Plant response rating, Wheat” value [9, 17] was 0, the “Plant response rating, Wheat” value [9, 18] was 20 and the “Foxtail, Giant plant response rating” value [10, 15] was 20. The “Plant response rating, Foxtail, Giant” value [10, 16] was 30, the “Plant response rating, Foxtail, Giant” value [10, 17] was 0 and the “Foxtail, Giant plant response rating” value [10, 18] was 0. The “Blackgrass plant response rating” value [11] was 20, the “Plant response rating, Blackgrass” value [11] was 60 and the “Oat, Wild plant response rating” value (wild oat (Avena fatua)) was 0. For the same compound, the “Plant response rating, Oat, Wild” value (wild oat (Avena fatua)) was 0, the “Plant response rating, Barnyardgrass” value [12] was 0 and the “Plant response rating, Sedge, Umbrella” value [13] was 80. For the same compound, the “Plant response rating, Rice” value (rice (Oryza sativa)) was 0 and the “Plant response rating, Ducksalad” value [14] was 90.
